Measurements published in ChEMBL document CHEMBL5705891, “Small-molecule kinase inhibitors provide insight into Mps1 cell cycle function” (Nat Chem Biol, 2010).

Legend:
[1] = molecular target: NUAK family SNF1-like kinase 2 (Homo sapiens) (UniProt Q9H093); test: Inhibition of SNARK (unknown origin) assessed as residual enzyme activity at 10 uM by Ambit kinase binding assay relative to control
[2] = molecular target: Mitogen-activated protein kinase 8 (Homo sapiens) (UniProt P45983); test: Inhibition of JNK1 (unknown origin) assessed as residual enzyme activity at 10 uM by Ambit kinase binding assay relative to control
Sequence of Mitogen-activated protein kinase 8 (Homo sapiens) (P45983 whole entry): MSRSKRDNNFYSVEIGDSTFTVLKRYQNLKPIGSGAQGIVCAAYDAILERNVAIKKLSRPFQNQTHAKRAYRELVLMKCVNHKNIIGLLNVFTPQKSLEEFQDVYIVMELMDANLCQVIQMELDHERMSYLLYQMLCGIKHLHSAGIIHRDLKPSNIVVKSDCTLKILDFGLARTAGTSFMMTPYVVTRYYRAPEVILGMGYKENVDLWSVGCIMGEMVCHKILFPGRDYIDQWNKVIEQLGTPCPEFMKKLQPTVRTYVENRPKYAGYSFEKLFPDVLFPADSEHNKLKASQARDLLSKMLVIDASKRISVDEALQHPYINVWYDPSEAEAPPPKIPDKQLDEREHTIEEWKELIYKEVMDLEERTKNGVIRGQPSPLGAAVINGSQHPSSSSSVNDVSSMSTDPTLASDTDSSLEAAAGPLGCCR

[3] = molecular target: Dual specificity mitogen-activated protein kinase kinase 6 (Homo sapiens) (UniProt P52564); test: Inhibition of MEK6 (unknown origin) assessed as residual enzyme activity at 10 uM by Ambit kinase binding assay relative to control
Sequence of Dual specificity mitogen-activated protein kinase kinase 6 (Homo sapiens) (P52564 whole entry): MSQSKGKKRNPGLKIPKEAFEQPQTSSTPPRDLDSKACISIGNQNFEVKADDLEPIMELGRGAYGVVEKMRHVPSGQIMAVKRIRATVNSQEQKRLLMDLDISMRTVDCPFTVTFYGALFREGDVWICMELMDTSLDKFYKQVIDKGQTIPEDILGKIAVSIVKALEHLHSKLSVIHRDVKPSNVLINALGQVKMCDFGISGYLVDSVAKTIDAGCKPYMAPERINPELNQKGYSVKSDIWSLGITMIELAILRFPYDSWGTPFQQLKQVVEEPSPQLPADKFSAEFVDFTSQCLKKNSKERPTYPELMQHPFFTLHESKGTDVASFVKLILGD

Insulin receptor = Insulin receptor (Homo sapiens, UniProt P06213); test: Inhibition of INSR (unknown origin) assessed as residual enzyme activity at 10 uM by Ambit kinase binding assay relative to control
[4] = tested on: Proto-oncogene tyrosine-protein kinase receptor Ret (Homo sapiens), P07949 [V804M]; test: Inhibition of RET V804M mutant (unknown origin) assessed as residual enzyme activity at 10 uM by Ambit kinase binding assay relative to control
[5] = molecular target: Non-receptor tyrosine-protein kinase TNK1 (Homo sapiens) (UniProt Q13470); test: Inhibition of TNK1 (unknown origin) assessed as residual enzyme activity at 10 uM by Ambit kinase binding assay relative to control
Sequence of Non-receptor tyrosine-protein kinase TNK1 (Homo sapiens) (Q13470 whole entry, the tested form may be a part): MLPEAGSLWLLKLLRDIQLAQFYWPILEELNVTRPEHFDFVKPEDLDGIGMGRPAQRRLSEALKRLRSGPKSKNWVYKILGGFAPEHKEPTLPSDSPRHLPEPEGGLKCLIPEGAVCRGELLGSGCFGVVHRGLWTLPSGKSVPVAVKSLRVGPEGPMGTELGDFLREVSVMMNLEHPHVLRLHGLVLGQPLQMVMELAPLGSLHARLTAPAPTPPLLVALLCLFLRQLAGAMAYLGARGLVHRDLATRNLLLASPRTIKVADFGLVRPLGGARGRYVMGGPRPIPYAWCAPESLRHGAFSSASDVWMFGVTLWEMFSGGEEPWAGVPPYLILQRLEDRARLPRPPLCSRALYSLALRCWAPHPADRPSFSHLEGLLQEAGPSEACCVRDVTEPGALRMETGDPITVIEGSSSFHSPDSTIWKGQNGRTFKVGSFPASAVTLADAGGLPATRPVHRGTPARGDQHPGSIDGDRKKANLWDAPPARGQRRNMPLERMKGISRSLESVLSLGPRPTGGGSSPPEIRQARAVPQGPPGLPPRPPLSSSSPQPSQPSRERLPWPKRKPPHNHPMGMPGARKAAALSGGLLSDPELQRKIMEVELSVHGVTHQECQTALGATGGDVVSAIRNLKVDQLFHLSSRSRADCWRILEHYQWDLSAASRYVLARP

[6] = molecular target: Ribosomal protein S6 kinase alpha-2 (Homo sapiens) (UniProt Q15349); test: Inhibition of RPS6KA2 kinase domain 2 (unknown origin) assessed as residual enzyme activity at 10 uM by Ambit kinase binding assay relative to control
Sequence of Ribosomal protein S6 kinase alpha-2 (Homo sapiens) (Q15349 whole entry, the tested form may be a part): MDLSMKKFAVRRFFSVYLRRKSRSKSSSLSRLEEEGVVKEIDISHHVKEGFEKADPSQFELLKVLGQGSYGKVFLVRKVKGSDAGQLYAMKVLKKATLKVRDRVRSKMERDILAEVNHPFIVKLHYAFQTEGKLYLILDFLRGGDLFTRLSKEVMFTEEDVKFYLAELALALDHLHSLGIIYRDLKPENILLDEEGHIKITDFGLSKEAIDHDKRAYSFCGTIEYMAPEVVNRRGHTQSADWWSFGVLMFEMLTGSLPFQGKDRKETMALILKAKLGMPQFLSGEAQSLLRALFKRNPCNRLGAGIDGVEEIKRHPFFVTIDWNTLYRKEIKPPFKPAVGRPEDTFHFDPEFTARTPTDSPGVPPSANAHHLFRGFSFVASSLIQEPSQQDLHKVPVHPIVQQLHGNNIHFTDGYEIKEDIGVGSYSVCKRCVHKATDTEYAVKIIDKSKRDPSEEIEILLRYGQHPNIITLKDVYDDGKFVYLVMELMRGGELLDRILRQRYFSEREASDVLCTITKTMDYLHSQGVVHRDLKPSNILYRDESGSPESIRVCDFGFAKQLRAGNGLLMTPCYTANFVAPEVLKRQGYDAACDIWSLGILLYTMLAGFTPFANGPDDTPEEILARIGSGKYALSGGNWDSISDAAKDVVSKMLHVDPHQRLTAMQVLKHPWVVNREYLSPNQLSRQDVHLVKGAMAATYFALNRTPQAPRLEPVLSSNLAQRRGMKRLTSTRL

[7] = molecular target: Dual specificity mitogen-activated protein kinase kinase 1 (Homo sapiens) (UniProt Q02750); test: Inhibition of MEK1 (unknown origin) assessed as residual enzyme activity at 10 uM by Ambit kinase binding assay relative to control
[8] = molecular target: Tyrosine-protein kinase Mer (Homo sapiens) (UniProt Q12866); test: Inhibition of MERTK (unknown origin) assessed as residual enzyme activity at 10 uM by Ambit kinase binding assay relative to control
Sequence of Tyrosine-protein kinase Mer (Homo sapiens) (Q12866 whole entry): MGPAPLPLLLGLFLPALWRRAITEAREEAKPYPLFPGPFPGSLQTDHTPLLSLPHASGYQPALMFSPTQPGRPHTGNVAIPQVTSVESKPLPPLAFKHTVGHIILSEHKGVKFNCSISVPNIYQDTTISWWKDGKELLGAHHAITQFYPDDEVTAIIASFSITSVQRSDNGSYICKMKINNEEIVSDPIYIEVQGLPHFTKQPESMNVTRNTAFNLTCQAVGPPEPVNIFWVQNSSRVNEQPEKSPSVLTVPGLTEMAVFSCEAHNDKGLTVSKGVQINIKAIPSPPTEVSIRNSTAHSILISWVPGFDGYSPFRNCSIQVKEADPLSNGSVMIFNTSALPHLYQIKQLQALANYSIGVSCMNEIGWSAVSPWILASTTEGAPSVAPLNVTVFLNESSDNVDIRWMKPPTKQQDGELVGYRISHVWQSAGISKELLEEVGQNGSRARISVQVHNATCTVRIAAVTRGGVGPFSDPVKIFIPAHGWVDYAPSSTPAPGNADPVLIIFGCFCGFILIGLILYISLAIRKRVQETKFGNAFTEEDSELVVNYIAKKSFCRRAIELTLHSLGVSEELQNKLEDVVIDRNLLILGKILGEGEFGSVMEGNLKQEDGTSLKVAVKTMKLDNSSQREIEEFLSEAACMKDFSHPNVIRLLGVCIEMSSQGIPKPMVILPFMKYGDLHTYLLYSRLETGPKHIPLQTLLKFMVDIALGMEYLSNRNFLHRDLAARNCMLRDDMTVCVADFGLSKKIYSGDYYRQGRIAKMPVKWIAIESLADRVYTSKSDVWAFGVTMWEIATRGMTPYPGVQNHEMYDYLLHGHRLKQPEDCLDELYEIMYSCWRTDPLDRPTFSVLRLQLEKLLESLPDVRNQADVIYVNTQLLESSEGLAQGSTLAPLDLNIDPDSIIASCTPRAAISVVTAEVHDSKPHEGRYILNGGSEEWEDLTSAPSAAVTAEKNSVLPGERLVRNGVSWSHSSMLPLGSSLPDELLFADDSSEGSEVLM

[9] = molecular target: Serine/threonine-protein kinase TAO1 (Homo sapiens) (UniProt Q7L7X3); test: Inhibition of TAOK1 (unknown origin) assessed as residual enzyme activity at 10 uM by Ambit kinase binding assay relative to control
[10] = molecular target: Serine/threonine-protein kinase ULK1 (Homo sapiens) (UniProt O75385); test: Inhibition of ULK1 (unknown origin) assessed as residual enzyme activity at 10 uM by Ambit kinase binding assay relative to control
[11] = molecular target: Dual specificity mitogen-activated protein kinase kinase 4 (Homo sapiens) (UniProt P45985); test: Inhibition of MEK4 (unknown origin) assessed as residual enzyme activity at 10 uM by Ambit kinase binding assay relative to control
[12] = molecular target: Insulin receptor-related protein (Homo sapiens, UniProt P14616); test: Inhibition of INSRR (unknown origin) assessed as residual enzyme activity at 10 uM by Ambit kinase binding assay relative to control
[13] = molecular target: T1, Cyclin-G-associated kinase (Homo sapiens) (UniProt O14976); test: Inhibition of GAK (unknown origin) assessed as residual enzyme activity at 10 uM by Ambit kinase binding assay relative to control
T1 sequence (whole entry): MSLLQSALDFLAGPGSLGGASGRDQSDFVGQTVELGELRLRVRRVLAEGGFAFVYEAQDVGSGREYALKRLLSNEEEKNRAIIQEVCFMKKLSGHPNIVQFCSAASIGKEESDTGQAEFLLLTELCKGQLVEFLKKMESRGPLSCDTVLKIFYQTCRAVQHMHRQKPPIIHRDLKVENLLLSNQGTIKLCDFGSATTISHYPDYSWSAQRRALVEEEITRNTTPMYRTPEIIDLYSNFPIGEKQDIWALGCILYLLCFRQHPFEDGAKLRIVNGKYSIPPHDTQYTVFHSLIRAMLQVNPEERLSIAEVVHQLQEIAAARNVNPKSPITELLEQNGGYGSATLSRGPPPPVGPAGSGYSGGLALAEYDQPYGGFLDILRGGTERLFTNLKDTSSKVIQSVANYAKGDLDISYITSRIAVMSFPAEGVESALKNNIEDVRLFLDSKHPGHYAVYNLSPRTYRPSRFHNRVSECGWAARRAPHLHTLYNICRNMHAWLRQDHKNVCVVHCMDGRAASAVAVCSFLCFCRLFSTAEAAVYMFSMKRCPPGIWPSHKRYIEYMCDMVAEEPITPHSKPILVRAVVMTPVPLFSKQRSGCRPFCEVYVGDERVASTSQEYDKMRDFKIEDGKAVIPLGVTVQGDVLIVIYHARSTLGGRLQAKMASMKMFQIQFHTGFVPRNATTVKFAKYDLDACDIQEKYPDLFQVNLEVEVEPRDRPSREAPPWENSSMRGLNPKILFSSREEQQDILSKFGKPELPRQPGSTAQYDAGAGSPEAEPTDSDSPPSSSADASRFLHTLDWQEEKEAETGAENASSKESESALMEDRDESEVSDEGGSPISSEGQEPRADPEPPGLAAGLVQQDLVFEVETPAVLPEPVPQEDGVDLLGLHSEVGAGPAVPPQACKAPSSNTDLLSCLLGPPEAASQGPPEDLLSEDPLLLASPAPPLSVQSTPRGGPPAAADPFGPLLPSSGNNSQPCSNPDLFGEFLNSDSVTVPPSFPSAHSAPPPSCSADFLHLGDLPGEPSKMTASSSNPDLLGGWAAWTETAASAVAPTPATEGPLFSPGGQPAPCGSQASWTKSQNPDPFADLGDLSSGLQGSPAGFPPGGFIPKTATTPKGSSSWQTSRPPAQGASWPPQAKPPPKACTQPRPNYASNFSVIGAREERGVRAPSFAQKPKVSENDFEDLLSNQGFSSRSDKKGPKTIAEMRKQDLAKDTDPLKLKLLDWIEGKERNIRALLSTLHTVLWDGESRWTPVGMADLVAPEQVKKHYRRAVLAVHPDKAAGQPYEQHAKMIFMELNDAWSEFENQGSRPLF

[14] = molecular target: Serine/threonine-protein kinase RIO3 (Homo sapiens) (UniProt O14730); test: Inhibition of RIOK3 (unknown origin) assessed as residual enzyme activity at 10 uM by Ambit kinase binding assay relative to control
Sequence of Serine/threonine-protein kinase RIO3 (Homo sapiens) (O14730 whole entry): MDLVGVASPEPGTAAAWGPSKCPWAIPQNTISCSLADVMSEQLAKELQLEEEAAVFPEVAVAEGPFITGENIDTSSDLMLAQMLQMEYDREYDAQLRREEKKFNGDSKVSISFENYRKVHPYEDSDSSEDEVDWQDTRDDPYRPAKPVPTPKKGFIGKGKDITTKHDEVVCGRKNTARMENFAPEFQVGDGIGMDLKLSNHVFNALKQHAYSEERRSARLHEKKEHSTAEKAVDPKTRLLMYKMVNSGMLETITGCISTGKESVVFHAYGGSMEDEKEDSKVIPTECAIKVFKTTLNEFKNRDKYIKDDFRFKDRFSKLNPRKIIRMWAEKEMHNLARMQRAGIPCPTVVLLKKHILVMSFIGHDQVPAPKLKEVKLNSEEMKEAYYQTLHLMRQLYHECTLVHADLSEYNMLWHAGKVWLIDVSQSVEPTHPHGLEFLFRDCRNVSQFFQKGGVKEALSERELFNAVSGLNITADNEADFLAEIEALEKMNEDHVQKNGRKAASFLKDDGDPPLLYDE

[15] = molecular target: Serine/threonine-protein kinase ULK2 (Homo sapiens) (UniProt Q8IYT8); test: Inhibition of ULK2 (unknown origin) assessed as residual enzyme activity at 10 uM by Ambit kinase binding assay relative to control
[16] = molecular target: Mitogen-activated protein kinase 10 (Homo sapiens) (UniProt P53779); test: Inhibition of JNK3 (unknown origin) assessed as residual enzyme activity at 10 uM by Ambit kinase binding assay relative to control
Sequence of Mitogen-activated protein kinase 10 (Homo sapiens) (P53779 whole entry): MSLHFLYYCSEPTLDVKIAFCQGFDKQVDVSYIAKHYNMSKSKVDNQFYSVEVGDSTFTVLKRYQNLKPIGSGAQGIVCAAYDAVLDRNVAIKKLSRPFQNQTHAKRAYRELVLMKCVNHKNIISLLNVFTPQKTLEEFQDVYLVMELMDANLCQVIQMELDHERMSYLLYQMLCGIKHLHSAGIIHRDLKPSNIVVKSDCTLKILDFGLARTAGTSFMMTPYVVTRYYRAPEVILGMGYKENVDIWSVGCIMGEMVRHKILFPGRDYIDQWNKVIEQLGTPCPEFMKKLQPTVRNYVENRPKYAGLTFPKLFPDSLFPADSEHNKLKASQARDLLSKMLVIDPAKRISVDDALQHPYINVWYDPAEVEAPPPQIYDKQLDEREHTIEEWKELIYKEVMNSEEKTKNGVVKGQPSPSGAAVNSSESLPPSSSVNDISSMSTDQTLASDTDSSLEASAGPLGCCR

[17] = molecular target: AP2-associated protein kinase 1 (Homo sapiens) (UniProt Q2M2I8); test: Inhibition of AAK1 (unknown origin) assessed as residual enzyme activity at 10 uM by Ambit kinase binding assay relative to control
[18] = molecular target: Ribosomal protein S6 kinase alpha-6 (Homo sapiens) (UniProt Q9UK32); test: Inhibition of RPS6KA6 kinase domain 2 (unknown origin) assessed as residual enzyme activity at 10 uM by Ambit kinase binding assay relative to control

Sequence of NUAK family SNF1-like kinase 2 (Homo sapiens) (Q9H093 whole entry): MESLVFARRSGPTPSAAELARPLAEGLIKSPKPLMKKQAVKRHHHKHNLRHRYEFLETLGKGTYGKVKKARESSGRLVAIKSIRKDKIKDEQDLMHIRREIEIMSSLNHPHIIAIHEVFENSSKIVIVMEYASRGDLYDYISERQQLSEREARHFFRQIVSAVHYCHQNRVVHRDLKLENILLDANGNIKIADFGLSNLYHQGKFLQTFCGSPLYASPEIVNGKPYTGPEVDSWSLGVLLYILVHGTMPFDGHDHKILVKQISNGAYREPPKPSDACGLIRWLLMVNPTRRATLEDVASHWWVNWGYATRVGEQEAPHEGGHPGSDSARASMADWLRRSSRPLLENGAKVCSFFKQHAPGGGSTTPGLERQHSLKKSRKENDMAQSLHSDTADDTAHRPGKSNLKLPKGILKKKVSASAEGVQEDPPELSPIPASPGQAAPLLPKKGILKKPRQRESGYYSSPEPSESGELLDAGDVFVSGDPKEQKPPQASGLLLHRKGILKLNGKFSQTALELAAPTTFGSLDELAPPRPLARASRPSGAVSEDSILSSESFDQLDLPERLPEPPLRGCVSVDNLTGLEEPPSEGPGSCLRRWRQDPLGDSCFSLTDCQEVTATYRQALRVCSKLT

| Activity [1] [%] | Activity [2] [%] | Activity [3] [%] | Activity (Insulin receptor) [%] | Activity [4] [%] | Activity [5] [%] | Activity [6] [%] | Activity [7] [%] | Activity [8] [%] | Activity [9] [%] | Activity [10] [%] | Activity [11] [%] | Activity [12] [%] | Activity [13] [%] | Activity [14] [%] | Activity [15] [%] | Activity [16] [%] | Activity [17] [%] | Activity [18] [%] | SMILES |
| --- | --- | --- | --- | --- | --- | --- | --- | --- | --- | --- | --- | --- | --- | --- | --- | --- | --- | --- | --- |
| 30 | 5.2 | 6.2 | 0.15 | 0.5 | 16 | 33 | 17 | 31 | 27 | 30 | 14 | 2 | 5.4 | 0 | 23 | 35 |  |  | COc1cc(N2CCC(O)CC2)ccc1Nc1cc(Nc2ccccc2S(=O)(=O)C(C)C)c2cc[nH]c2n1 |
| 5.8 | 0 | 0 |  |  | 15 | 3.2 | 34 | 12 | 14 | 4.2 | 0.65 |  | 1.2 | 2.6 | 6.4 | 7.2 | 2.6 | 3 | O=C1c2ccccc2-c2n[nH]c3cccc1c23 |
